target: T1, human GluR1 flip (Homo sapiens, UniProt P42261); experiment: AMPA receptor function-enhancing activity using calcium influx as index (CHO-K1/GluR1 flip/stargazin-expressing cells); format: cell-based; conditions: CHO-K1, test compound 30 μM with 3 mM glutamic acid, 100% = 3 mM glutamic acid + 300 μM cyclothiazide, 0% = 3 mM glutamic acid alone, read-out: hGluR1 flip/30 μM (%)
T1 construct: expressed in transfected cells; host or cells: CHO-K1
Text: Experimental Example 1 Measurement method of AMPA receptor function-enhancing activity of compound using calcium influx as index
(1) Construction of Expression Gene
Human GluR1 flip cDNA was amplified by PCR method using forward primer […] (SEQ ID NO: 1) and reverse primer […] (SEQ ID NO: 2) artificially synthesized using human brain-derived cDNA (BD Bioscience) as a template. The amplified product was digested with restriction enzymes EcoRI, NotI (TAKARA SHUZO CO. LTD.) and incorporated into the same site of pcDNA3.1(+) (Invitrogen) to construct pcDNA3.1(+)/human GluR1 flip gene. Human stargazin cDNA was amplified by PCR method using forward primer […] (SEQ ID NO: 3) and reverse primer […] (SEQ ID NO: 4) artificially synthesized using human hippocampus cDNA as a template. The amplified product was digested with restriction enzymes XhoI, BamHI (TAKARA SHUZO CO. LTD.) and incorporated into the same site of pcDNA3.1(−) (Invitrogen) to construct pcDNA3.1 Zeo(−)/human stargazing gene.
(2) Construction of GluR1 Flip/Stargazin Expressing Cell
CHO-K1 cells passaged in a culture medium (Ham's F12 medium (Invitrogen) added with 10% inactivated fetal bovine serum (Morgate) and penicillin, streptomycin (Invitrogen)) were detached using 0.05% trypsin and 0.53 mM EDTA (Invitrogen) diluted with D-PBS(−). The detached cells were suspended in a culture medium, and recovered by centrifugation at 1,000 rpm. The recovered cells were re-suspended in D-PBS(−) and added into 0.4 cm electroporation cuvette (BioRad). pcDNA3.1(+)/human GluR1 flip gene (5 μg) and pcDNA3.1 Zeo(−)/human stargazin gene (15 μg) were added, and introduced into CHO-K1 cells under the conditions of 950 μFd, […] and using Gene Pulser II (BioRad). The introduced cells were cultured overnight in a culture medium. The next day, using a selection medium (culture medium added with zeocin (Invitrogen) at 250 μg/mL), the cells were plated in a 96 well plate at 250 cells/well. The clones showing drug resistance were selected, and GluR1 flip/stargazin expression clones were selected by an assay method shown below using calcium influx as an index.
(3) Measurement Method of AMPA Receptor Function-Enhancing Activity of Compound, Using Calcium Influx as an Index
CHO-K1/GluR1 flip/stargazin-expressing cells were plated on a 384 well black bottom transparent plate, and cultured for 2 days in a CO2 incubator (SANYO ELECTRIC Co. Ltd.) at 37° C. The medium of the cell plate was removed. A calcium indicator (Calcium5 Assay Kit, Molecular Devices) was diluted with an assay buffer (HBSS (Thermo Fisher Scientific), 0.1% BSA (Merck Millipoer) and 10 mM HEPES (Thermo Fisher Scientific)), and 1.25 mM probenecid (Dojindo Laboratories) was added thereto. The mixture prepared above was added at 30 μL/well (100 μL/well in case of 96 wells) to the well, and the well was left standing in 37° C., CO2 incubator for 1 hr. The cell plate was set in CellLux (PerkinElmer), a mixture (15 μL) (50 μL/well in case of 96 wells) of […] glutamic acid (final concentration 3 mM) diluted with an assay buffer and a test compound (test compound concentration 30 μM) was added thereto, and variation in the amount of fluorescence was measured for 3 min. The variation of fluorescence level of a well added with final concentration 3 mM of glutamic acid and 300 μM cyclothiazide (TOCRIS) was defined as 100%, the variation of fluorescence level of a well added with final concentration 3 mM of glutamic acid alone was defined as 0%, and the activity of the compound was calculated by the following formula. activity (%)=(X−C)/(T−C)×100 • T: variation of fluorescence level of well added with final concentration 3 mM of glutamic acid and 300 μM cyclothiazide • C: variation of fluorescence level of well added with final concentration 3 mM of glutamic acid alone • X: variation of fluorescence level of well added with test compound

T1 sequence (P42261 19-906 isoform P42261-2 limits assumed): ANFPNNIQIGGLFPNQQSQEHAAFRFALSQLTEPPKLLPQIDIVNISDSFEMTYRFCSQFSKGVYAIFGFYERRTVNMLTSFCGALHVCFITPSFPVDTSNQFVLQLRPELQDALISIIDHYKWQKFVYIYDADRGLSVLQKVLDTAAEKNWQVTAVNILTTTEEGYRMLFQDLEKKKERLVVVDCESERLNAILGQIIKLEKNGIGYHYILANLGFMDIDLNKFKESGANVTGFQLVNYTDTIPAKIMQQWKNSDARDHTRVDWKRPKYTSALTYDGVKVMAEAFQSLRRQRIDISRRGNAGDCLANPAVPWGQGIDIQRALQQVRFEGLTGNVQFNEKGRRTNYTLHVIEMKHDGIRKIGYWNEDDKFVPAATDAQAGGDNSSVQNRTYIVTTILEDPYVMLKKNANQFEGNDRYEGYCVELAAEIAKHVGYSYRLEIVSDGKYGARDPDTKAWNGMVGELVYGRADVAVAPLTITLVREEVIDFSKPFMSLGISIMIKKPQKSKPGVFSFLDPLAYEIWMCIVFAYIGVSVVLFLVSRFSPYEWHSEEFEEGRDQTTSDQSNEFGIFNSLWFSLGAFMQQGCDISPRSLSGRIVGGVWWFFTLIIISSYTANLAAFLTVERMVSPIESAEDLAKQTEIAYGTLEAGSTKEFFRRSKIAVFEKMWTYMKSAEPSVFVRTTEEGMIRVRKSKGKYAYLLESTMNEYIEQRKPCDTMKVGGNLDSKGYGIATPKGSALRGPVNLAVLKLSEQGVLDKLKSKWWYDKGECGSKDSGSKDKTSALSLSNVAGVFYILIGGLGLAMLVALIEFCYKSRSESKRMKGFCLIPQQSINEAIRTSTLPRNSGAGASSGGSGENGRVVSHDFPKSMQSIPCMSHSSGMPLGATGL
T1 sequence (Q9Y698 whole entry partner): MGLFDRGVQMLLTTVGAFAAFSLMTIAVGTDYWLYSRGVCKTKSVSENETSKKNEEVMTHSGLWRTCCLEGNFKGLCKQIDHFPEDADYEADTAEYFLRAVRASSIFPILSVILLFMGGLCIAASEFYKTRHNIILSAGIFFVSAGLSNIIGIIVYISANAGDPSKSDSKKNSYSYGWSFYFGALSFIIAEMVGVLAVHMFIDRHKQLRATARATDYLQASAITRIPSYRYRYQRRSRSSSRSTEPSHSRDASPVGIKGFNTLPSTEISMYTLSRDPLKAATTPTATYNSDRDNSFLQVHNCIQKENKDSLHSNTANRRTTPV

SMILES | activation at 30 µM
COC1CCN(C(=O)c2ccc(-c3nccc4c3nc(C(F)(F)F)n4CC(F)F)cc2F)CC1 [Example 52, (4-(1-(2,2-difluoroethyl)-2-(trifluoromethyl)-1H-imidazo[4,5-c]pyridin-4-yl)-2-fluorophenyl)(4-methoxypiperidin-1-yl)methanone] | 67.1%
CCn1c(C(F)(F)F)nc2c(-c3ccc(C(=O)N4CCO[C@@H](C)C4)c(F)c3)nccc21 [Example 9, (4-(1-ethyl-2-(trifluoromethyl)-1H-imidazo[4,5-c]pyridin-4-yl)-2-fluorophenyl)((2S)-2-methylmorpholin-4-yl)methanone] | 110%
C[C@H]1CN(C(=O)c2ccc(-c3cccc4c3nc(C(F)(F)F)n4CC(F)F)cc2)CCO1 [Example 13, (4-(1-(2,2-difluoroethyl)-2-(trifluoromethyl)-1H-benzimidazol-4-yl)phenyl)((2S)-2-methylmorpholin-4-yl)methanone] | 112%
O=C(c1ccc(-c2cccc3c2nc(C(F)(F)F)n3CC(F)F)cc1)N1CCOC(C(F)F)C1 (centres unmarked) [Example 16, (4-(1-(2,2-difluoroethyl)-2-(trifluoromethyl)-1H-benzimidazol-4-yl)phenyl)(2-(difluoromethyl)morpholin-4-yl)methanone] | 108%
O=C(c1ccc(-c2nccc3c2nc(C(F)(F)F)n3CC(F)F)cc1)N1CCOCC(F)(F)C1 [Example 50, (4-(1-(2,2-difluoroethyl)-2-(trifluoromethyl)-1H-imidazo[4,5-c]pyridin-4-yl)phenyl)(6,6-difluoro-1,4-oxazepan-4-yl)methanone] | 122%
CN(CCC#N)C(=O)c1ccc(-c2nccc3c2nc(C(F)(F)F)n3CC(F)F)cc1F [Example 19, N-(2-cyanoethyl)-4-(1-(2,2-difluoroethyl)-2-(trifluoromethyl)-1H-imidazo[4,5-c]pyridin-4-yl)-2-fluoro-N-methylbenzamide] | 81%
O=C(c1ccc(-c2nccc3c2nc(C(F)(F)F)n3CC(F)F)cc1F)N1CCOCC2(CC2)C1 [Example 48, (4-(1-(2,2-difluoroethyl)-2-(trifluoromethyl)-1H-imidazo[4,5-c]pyridin-4-yl)-2-fluorophenyl)(5-oxa-8-azaspiro[2.6]non-8-yl)methanone] | 80.2%
CCn1c(C(F)(F)F)nc2c(-c3ccc(C(=O)N4CCOCC4)cc3)cccc21 [Example 2, (4-(1-ethyl-2-(trifluoromethyl)-1H-benzimidazol-4-yl)phenyl)(morpholin-4-yl)methanone] | 79.3%
O=C(c1ccc(-c2cccc3c2nc(C(F)(F)F)n3CC(F)F)cc1)N1CCOCC(F)(F)C1 [Example 29, (4-(1-(2,2-difluoroethyl)-2-(trifluoromethyl)-1H-benzimidazol-4-yl)phenyl)(6,6-difluoro-1,4-oxazepan-4-yl)methanone] | 93%
O=C(c1ccc(-c2cccc3c2nc(C(F)(F)F)n3CC(F)F)cc1)N1CCCOCC1 [Example 14, (4-(1-(2,2-difluoroethyl)-2-(trifluoromethyl)-1H-benzimidazol-4-yl)phenyl)(1,4-oxazepan-4-yl)methanone] | 92.6%
O=C(c1ccc(-c2nccc3c2nc(C(F)(F)F)n3CC(F)F)cc1F)N1CC(F)(F)C1 [Example 26, (3,3-difluoroazetidin-1-yl)(4-(1-(2,2-difluoroethyl)-2-(trifluoromethyl)-1H-imidazo[4,5-c]pyridin-4-yl)-2-fluorophenyl)methanone] | 79.3%
CCn1c(C(F)(F)F)nc2c(-c3ccc(C(=O)N4CCOCC4)cc3)nccc21 [Example 4, (4-(1-ethyl-2-(trifluoromethyl)-1H-imidazo[4,5-c]pyridin-4-yl)phenyl)(morpholin-4-yl)methanone] | 68.4%
O=C(c1ccc(-c2nccc3c2nc(C(F)(F)F)n3CC(F)F)c(F)c1F)N1CCOCC1 [Example 42, (4-(1-(2,2-difluoroethyl)-2-(trifluoromethyl)-1H-imidazo[4,5-c]pyridin-4-yl)-2,3-difluorophenyl)(morpholin-4-yl)methanone] | 83.9%
C[C@H]1CN(C(=O)c2ccc(-c3cccc4c3nc(C(F)(F)F)n4C)cc2F)CCO1 [Example 11, (2-fluoro-4-(1-methyl-2-(trifluoromethyl)-1H-benzimidazol-4-yl)phenyl)((2S)-2-methylmorpholin-4-yl)methanone] | 80.3%
O=C(c1ccc(-c2cccc3c2nc(C(F)(F)F)n3CC(F)F)cc1)N1CCOCC1 [Example 7, (4-(1-(2,2-difluoroethyl)-2-(trifluoromethyl)-1H-benzimidazol-4-yl)phenyl)(morpholin-4-yl)methanone] | 83.3%
O=C(c1ccc(-c2nccc3c2nc(C(F)(F)F)n3CC(F)F)cc1F)N1CCCOCC1 [Example 15, (4-(1-(2,2-difluoroethyl)-2-(trifluoromethyl)-1H-imidazo[4,5-c]pyridin-4-yl)-2-fluorophenyl)(1,4-oxazepan-4-yl)methanone] | 72%
CCn1c(C(F)(F)F)nc2c(-c3ccc(C(=O)N4CCOCC4)c(F)c3)nccc21 [Example 8, (4-(1-ethyl-2-(trifluoromethyl)-1H-imidazo[4,5-c]pyridin-4-yl)-2-fluorophenyl)(morpholin-4-yl)methanone] | 109%
O=C(c1ccc(-c2nccc3c2nc(C(F)(F)F)n3CC(F)F)cc1F)N1CCC1 [Example 24, azetidin-1-yl(4-(1-(2,2-difluoroethyl)-2-(trifluoromethyl)-1H-imidazo[4,5-c]pyridin-4-yl)-2-fluorophenyl)methanone] | 78.1%
Cc1cc2c(nc(C(F)(F)F)n2CC(F)F)c(-c2ccc(C(=O)N3CCOCC(F)(F)C3)c(F)c2)n1 [Example 38, (4-(1-(2,2-difluoroethyl)-6-methyl-2-(trifluoromethyl)-1H-imidazo[4,5-c]pyridin-4-yl)-2-fluorophenyl)(6,6-difluoro-1,4-oxazepan-4-yl)methanone] | 100%
O=C(c1ccc(-c2c(F)ccc3c2nc(C(F)(F)F)n3CC(F)F)cc1)N1CCOCC1 [Example 36, (4-(1-(2,2-difluoroethyl)-5-fluoro-2-(trifluoromethyl)-1H-benzimidazol-4-yl)phenyl)(morpholin-4-yl)methanone] | 93.5%

same assay, conditions: test compound 30 μM with 3 mM glutamic acid, 100% = 3 mM glutamic acid + 300 μM cyclothiazide, 0% = 3 mM glutamic acid alone

SMILES | hGluR1 flip/30 μM (%)
CN(CCC#N)C(=O)c1ccc(-c2nccc3c2nc(C(F)(F)F)n3CC(F)F)cc1F [Example 30, N-(2-cyanoethyl)-4-(1-(2,2-difluoroethyl)-2-(trifluoromethyl)-1H-imidazo[4,5-c]pyridin-4-yl)-2-fluoro-N-methylbenzamide] | 92.6%
O=C(c1ccc(-c2cccc3c2nc(C(F)(F)F)n3CC(F)F)cc1)N1CCOC(C(F)F)C1 (centres unmarked) [Example 22, (4-(1-(2,2-difluoroethyl)-2-(trifluoromethyl)-1H-benzimidazol-4-yl)phenyl)(2-(difluoromethyl)morpholin-4-yl)methanone] | 105.5%
O=C(c1ccc(-c2cccc3c2nc(C(F)(F)F)n3CC(F)F)cc1)N1CCOC(C(F)F)C1 (centres unmarked) [Example 23, (4-(1-(2,2-difluoroethyl)-2-(trifluoromethyl)-1H-benzimidazol-4-yl)phenyl)(2-(difluoromethyl)morpholin-4-yl)methanone] | 103%

From patent publication US11939327B2, “Heterocyclic compounds” (Takeda Pharmaceutical Company Limited, priority 2017, dated 2024)
